Measured values: patent US20250032598A1, “Compounds, Pharmaceuticals, Formulations, and Methods for Treating and Preventing RNA Virus Infections and Associated Diseases” (ASAVI LLC, priority 2023, published 2025)
Like-named read-outs stand apart in the source and are kept apart here.

Tests used:
[1] = tested on: SARS-CoV-2; format: in vivo, Syrian hamsters
[2] = tested on: influenza; conditions: cited from earlier work
[3] = female Syrian hamsters, lung homogenates 96 hours after infection, 50,000 KIU/kg intravenously 2 times a day for 4 days, Lip-APR = composition 2
[4] = male Syrian hamsters, lung homogenates 96 hours after infection, 50,000 KIU/kg intravenously 2 times a day for 4 days, Lip-APR = composition 2
[5] = male and female Syrian hamsters pooled, lung homogenates, 10,000 KIU/ml, 50,000 KIU/kg intravenously

aprotinin
Infectious titer lg (TCID50/mL) ± SD [1, 3]: 4.38±0.85 lg (TCID50/mL) | Viral load Ct ± SD [1, 3]: 17.51±1.04 Ct | Anti-SARS-CoV-2/COVID-19 efficacy (in words) ([1]; intravenous, 50,000 KIU/kg, versus untreated control): no antiviral activity | Infectious titer lg (TCID50/mL) ± SD [1, 4]: 3.88±0.48 lg (TCID50/mL) | Viral load Ct ± SD [1, 4]: 17.51±1.28 Ct | Infectious titer lg (TCID50/mL) ± SD [1, 5]: 4.13±0.69 lg (TCID50/mL) | Viral load Ct ± SD [1, 5]: 17.72±1.10 Ct | Reduction in viral load compared with patients treated with Ingavirin ([2]; APR aerosol, patients): approximately 10 fold | Side effects and discomfort ([2]; patients of the APR group): not identified | Duration of clinical symptoms, shorter than in the Ingavirin group ([2]; rhinorrhea, weakness, headache, sore throat, cough, chest pain, fever): 1 to 2 days
